Results: patent publication US10287301B2 (Achillion Pharmaceuticals, Inc., priority 2015, dated 2019)
pIC50: −log10 of the molar value. Counter-ions that a name gives are not always drawn. Like-named read-outs stand apart in the source and are kept apart here.

Target: Human Factor D (Homo sapiens (Human), UniProt P00746)
Assay: Human Factor D Assay
Format: biochemical
How it was run: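 Serum-purified human Factor D (80 nM final) was preincubated with test compound at various concentrations for 5 min at room temperature in 50 mM Tris, 1M NaCl, pH 7.5. Z-L-Lys-SBzl and DTNB were then added at 100 μM each. IC50 came from nonlinear regression of reaction rates versus compound concentration.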

[1] = Table 3, Human Factor D 80 nM, substrate Z-L-Lys-SBzl, read-out: IC50 (Stars)

Human Factor D, sequence (P00746 26-253): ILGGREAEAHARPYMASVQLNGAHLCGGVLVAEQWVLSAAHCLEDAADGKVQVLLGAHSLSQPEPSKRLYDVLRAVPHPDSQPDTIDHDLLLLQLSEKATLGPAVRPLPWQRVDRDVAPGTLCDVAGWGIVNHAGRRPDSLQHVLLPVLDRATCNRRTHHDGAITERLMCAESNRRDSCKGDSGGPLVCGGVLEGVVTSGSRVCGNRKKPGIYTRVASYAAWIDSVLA

Row | Compound | pIC50 [1] | pIC50
1 | CC(=O)c1nn(CC(=O)N2C[C@H](F)C[C@H]2C(=O)Nc2ccc(C)c(Br)n2)c2ccc(-c3cnc(C)nc3)cc12 [Compound 402, (2S,4R)-1-(2-(3-Acetyl-5-(2-methylpyrimidin-5-yl)-1H-indazol-1-yl)acetyl)-N-(6-bromo-5-methylpyridin-2-yl)-4-fluoropyrrolidine-2-carboxamide] | > 6.00 | –
2 | CC(=O)c1nn(CC(=O)N2C[C@H](F)C[C@H]2C(=O)Nc2cccc(Br)n2)c2ccc(-c3cnc(CNC(=O)OC(C)(C)C)nc3)cc12 [Compound 403, tert-butyl ((5-(3-Acetyl-1-(2-((2S,4R)-2-((6-bromopyridin-2-yl)carbamoyl)-4-fluoropyrrolidin-1-yl)-2-oxoethyl)-1H-indazol-5-yl)pyrimidin-2-yl)methyl)carbamate] | > 6.00 | –
3 | CC(=O)c1nn(CC(=O)N2C[C@H](F)C[C@H]2C(=O)Nc2cccc(Br)n2)c2ccc(-c3cnc(CN)nc3)cc12 [Compound 404, (2S,4R)-1-(2-(3-Acetyl-5-(2-(aminomethyl)pyrimidin-5-yl)-1H-indazol-1-yl)acetyl)-N-(6-bromopyridin-2-yl)-4-fluoropyrrolidine-2-carboxamide hydrochloride] | > 6.00 | –
4 | CC(=O)c1nn(CC(=O)N2C[C@H](F)C[C@H]2C(=O)Nc2nc(Br)ccc2C)c2ccc(-c3cnc(C)nc3)cc12 [Compound 405, (2S,4R)-1-(2-(3-Acetyl-5-(2-methylpyrimidin-5-yl)-1H-indazol-1-yl)acetyl)-N-(6-bromo-3-methylpyridin-2-yl)-4-fluoropyrrolidine-2-carboxamide] | > 6.00 | –
5 | CC(=O)NCc1ncc(-c2ccc3c(c2)c(C(C)=O)nn3CC(=O)N2C[C@H](F)C[C@H]2C(=O)Nc2cccc(Br)n2)cn1 [Compound 406, (2S,4R)-1-(2-(5-(2-(Acetamidomethyl)pyrimidin-5-yl)-3-acetyl-1H-indazol-1-yl)acetyl)-N-(6-bromopyridin-2-yl)-4-fluoropyrrolidine-2-carboxamide] | > 6.00 | –
6 | CC(=O)c1nn(CC(=O)N2C[C@H](F)C[C@H]2C(=O)Nc2ccc(F)cn2)c2ccc(-c3cnc(C)nc3)cc12 [Compound 407, (2S,4R)-1-(2-(3-Acetyl-5-(2-methylpyrimidin-5-yl)-1H-indazol-1-yl)acetyl)-4-fluoro-N-(5-fluoropyridin-2-yl)pyrrolidine-2-carboxamide] | > 6.00 | –
7 | CC(=O)c1nn(CC(=O)N2C[C@H](F)C[C@H]2C(=O)Nc2ncc(F)cc2Br)c2ccc(-c3cnc(C)nc3)cc12 [Compound 408, (2S,4R)-1-(2-(3-Acetyl-5-(2-methylpyrimidin-5-yl)-1H-indazol-1-yl)acetyl)-N-(3-bromo-5-fluoropyridin-2-yl)-4-fluoropyrrolidine-2-carboxamide] | > 6.00 | –
8 | Cc1ncc(-c2ccc3c(c2)c([C@H](C)O)nn3CC(=O)N2[C@@H]3C[C@@H]3C[C@H]2C(=O)Nc2cccc(Br)n2)cn1 [Compound 409, (1R,3S,5R)—N-(6-Bromopyridin-2-yl)-2-(2-(3-((S)-1-hydroxyethyl)-5-(2-methylpyrimidin-5-yl)-1H-indazol-1-yl)acetyl)-2-azabicyclo[3.1.0]hexane-3-carboxamide] | > 6.00 | –
9 | CC(=O)c1nn(CC(=O)N2C[C@@](F)(CF)C[C@H]2C(=O)Nc2cccc(Br)n2)c2ccc(-c3cnc(C)nc3)cc12 [Compound 415, (2S,4R)-1-(2-(3-Acetyl-5-(2-methylpyrimidin-5-yl)-1H-indazol-1-yl)acetyl)-N-(6-bromopyridin-2-yl)-4-fluoro-4-(fluoromethyl)pyrrolidine-2-carboxamide] | > 6.00 | –
10 | COC[C@@]12C[C@@H](C(=O)Nc3cccc(Br)n3)N(C(=O)Cn3nc(C(C)=O)c4cc(-c5cnc(C)nc5)ccc43)[C@@H]1C2 [Compound 416, (1R,3S,5S)-2-(2-(3-Acetyl-5-(2-methylpyrimidin-5-yl)-1H-indazol-1-yl)acetyl)-N-(6-bromopyridin-2-yl)-5-(methoxymethyl)-2-azabicyclo[3.1.0]hexane-3-carboxamide] | > 6.00 | –
11 | COC[C@@]12C[C@@H]1N(C(=O)Cn1nc(C(C)=O)c3cc(-c4cnc(C)nc4)ccc31)[C@H](C(=O)Nc1cccc(Br)n1)C2 [Compound 417, (1S,3S,5R)-2-(2-(3-Acetyl-5-(2-methylpyrimidin-5-yl)-1H-indazol-1-yl)acetyl)-N-(6-bromopyridin-2-yl)-5-(methoxymethyl)-2-azabicyclo[3.1.0]hexane-3-carboxamide] | > 6.00 | –
12 | CC(=O)c1nn(CC(=O)N2C[C@](C)(F)C[C@H]2C(=O)Nc2cccc(Br)n2)c2ccc(-c3cnc(C)nc3)cc12 [Compound 418, (2S,4R)-1-(2-(3-Acetyl-5-(2-methylpyrimidin-5-yl)-1H-indazol-1-yl)acetyl)-N-(6-bromopyridin-2-yl)-4-fluoro-4-methylpyrrolidine-2-carboxamide] | > 6.00 | –
13 | COC[C@@]1(F)C[C@@H](C(=O)Nc2cccc(Br)n2)N(C(=O)Cn2nc(C(C)=O)c3cc(-c4cnc(C)nc4)ccc32)C1 [Compound 419, (2S,4R)-1-(2-(3-Acetyl-5-(2-methylpyrimidin-5-yl)-1H-indazol-1-yl)acetyl)-N-(6-bromopyridin-2-yl)-4-fluoro-4-(methoxymethyl)pyrrolidine-2-carboxamide] | > 6.00 | –
14 | CC(=O)c1nn(CC(=O)N2C[C@H](F)C[C@H]2C(=O)Nc2nn(CC(F)(F)F)cc2Br)c2ccc(-c3cnc(C)nc3)cc12 [Compound 420, (2S,4R)-1-(2-(3-Acetyl-5-(2-methylpyrimidin-5-yl)-1H-indazol-1-yl)acetyl)-N-(4-bromo-1-(2,2,2-trifluoroethyl)-1H-pyrazol-3-yl)-4-fluoropyrrolidine-2-carboxamide] | > 6.00 | –
15 | CNC(=O)c1nn(CC(=O)N2C[C@H](F)C[C@H]2C(=O)Nc2cccc(Br)n2)c2ccc(-c3cnc(C)nc3)cc12 [Compound 424, 1-(2-((2S,4R)-2-((6-Bromopyridin-2-yl)carbamoyl)-4-fluoropyrrolidin-1-yl)-2-oxoethyl)-N-methyl-5-(2-methylpyrimidin-5-yl)-1H-indazole-3-carboxamide] | > 6.00 | –
16 | Cc1ncc(-c2ccc3c(c2)c([C@H](C)O)nn3CC(=O)N2C[C@H](F)C[C@H]2C(=O)Nc2cccc(Br)n2)cn1 [Compound 425, (2S,4R)—N-(6-Bromopyridin-2-yl)-4-fluoro-1-(2-(3-((S)-1-hydroxyethyl)-5-(2-methylpyrimidin-5-yl)-1H-indazol-1-yl)acetyl)pyrrolidine-2-carboxamide] | – | 5.00 to 6.00
17 | Cc1ncc(-c2ccc3c(c2)c([C@@H](C)O)nn3CC(=O)N2C[C@H](F)C[C@H]2C(=O)Nc2cccc(Br)n2)cn1 [Compound 426, (2S,4R)—N-(6-Bromopyridin-2-yl)-4-fluoro-1-(2-(3-((R)-1-hydroxyethyl)-5-(2-methylpyrimidin-5-yl)-1H-indazol-1-yl)acetyl)pyrrolidine-2-carboxamide] | – | 5.00 to 6.00
18 | CC(=O)c1nn(CC(=O)N2C[C@H](F)[C@@H](N)[C@H]2C(=O)Nc2cccc(Br)n2)c2ccc(-c3cnc(C)nc3)cc12 [Compound 427, (2S,3S,4S)-1-(2-(3-Acetyl-5-(2-methylpyrimidin-5-yl)-1H-indazol-1-yl)acetyl)-3-amino-N-(6-bromopyridin-2-yl)-4-fluoropyrrolidine-2-carboxamide] | > 6.00 | –
19 | CC(=O)c1nn(CC(=O)N2C[C@@H](N)[C@H](F)[C@H]2C(=O)Nc2cccc(Br)n2)c2ccc(-c3cnc(C)nc3)cc12 [Compound 428, (2R,3S,4R)-1-(2-(3-Acetyl-5-(2-methylpyrimidin-5-yl)-1H-indazol-1-yl)acetyl)-4-amino-N-(6-bromopyridin-2-yl)-3-fluoropyrrolidine-2-carboxamide] | < 5.00 | –
20 | CC(=O)c1nn(CC(=O)N2C[C@H](F)C[C@H]2C(=O)Nc2cc(C)n(CC(F)(F)F)n2)c2ccc(-c3cnc(C)nc3)cc12 [Compound 429, (2S,4R)-1-(2-(3-Acetyl-5-(2-methylpyrimidin-5-yl)-1H-indazol-1-yl)acetyl)-N-(5-methyl-1-(2,2,2-trifluoroethyl)-1H-pyrazol-3-yl)-4-fluoropyrrolidine-2-carboxamide] | > 6.00 | –
21 | CC(=O)c1nn(CC(=O)N2C[C@H](F)C[C@H]2C(=O)Nc2nn(CC(F)(F)F)cc2Cl)c2ccc(-c3cnc(C)nc3)cc12 [Compound 430, (2S,4R)-1-(2-(3-Acetyl-5-(2-methylpyrimidin-5-yl)-1H-indazol-1-yl)acetyl)-N-(4-chloro-1-(2,2,2-trifluoroethyl)-1H-pyrazol-3-yl)-4-fluoropyrrolidine-2-carboxamide] | > 6.00 | –
22 | COc1cc(Br)nc(NC(=O)[C@@H]2C[C@@H](F)CN2C(=O)Cn2nc(C(C)=O)c3cc(-c4cnc(OC)nc4)ccc32)c1 [Compound 431, (2S,4R)-1-(2-(3-Acetyl-5-(2-methoxypyrimidin-5-yl)-1H-indazol-1-yl)acetyl)-N-(6-bromo-4-methoxypyridin-2-yl)-4-fluoropyrrolidine-2-carboxamide] | > 6.00 | –
23 | COc1cc(Br)nc(NC(=O)[C@@H]2C[C@@H](F)CN2C(=O)Cn2nc(C(C)=O)c3cc(-c4cnc(N)nc4)ccc32)c1 [Compound 432, (2S,4R)-1-(2-(3-Acetyl-5-(2-aminopyrimidin-5-yl)-1H-indazol-1-yl)acetyl)-N-(6-bromo-4-methoxypyridin-2-yl)-4-fluoropyrrolidine-2-carboxamide] | > 6.00 | –
24 | COc1cc(Br)nc(NC(=O)[C@@H]2C[C@H]3C[C@H]3N2C(=O)Cn2nc(C(C)=O)c3cc(-c4cnc(OC)nc4)ccc32)c1 [Compound 433, (1R,3S,5R)-2-(2-(3-Acetyl-5-(2-methoxypyrimidin-5-yl)-1H-indazol-1-yl)acetyl)-N-(6-bromo-4-methoxypyridin-2-yl)-2-azabicyclo[3.1.0]hexane-3-carboxamide] | > 6.00 | –
25 | COc1cc(Br)nc(NC(=O)[C@@H]2C[C@H]3C[C@H]3N2C(=O)Cn2nc(C(C)=O)c3cc(-c4cnc(N)nc4)ccc32)c1 [Compound 434, (1R,3S,5R)-2-(2-(3-Acetyl-5-(2-aminopyrimidin-5-yl)-1H-indazol-1-yl)acetyl)-N-(6-bromo-4-methoxypyridin-2-yl)-2-azabicyclo[3.1.0]hexane-3-carboxamide] | > 6.00 | –
